Where “and” joins values, the source holds several entries; their conditions need not be identical. Equal entries are not always repeated. Inconclusive results and toxic doses are left out.
Test system: CD2F1 mice, L1210 leukemia ip, survival T/C
Test: NCI In Vivo Anticancer Drug Screen. Data for tumor model L1210 Leukemia (intraperitoneal) in CD2F1 (CDF1) mice
Details: higher = longer survival
Procedure, shortened: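 Read-out first: treated-group measurement over vehicle-control measurement, expressed as a ratio. Animals bore a transplanted tumor line and were dosed with compound or vehicle.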

## O=C1NC2(CCCCC2)C(=O)N1CCN(CCCl)CCCl
endpoint: median survival time, dose: 0.5 mg/kg/injection, schedule: Q03HX024 (ip), vehicle: Klucel (hydroxypropylcellulose) (HPC)
  T/C: 98 % of control
endpoint: median survival time, dose: 1.0 mg/kg/injection, schedule: Q01DX009 (ip), vehicle: Klucel (hydroxypropylcellulose) (HPC)
  T/C: 101 % of control
endpoint: median survival time, dose: 1.0 mg/kg/injection, schedule: Q01DX009 (sc), vehicle: Klucel (hydroxypropylcellulose) (HPC)
  T/C: 98 % of control
endpoint: median survival time, dose: 1.0 mg/kg/injection, schedule: Q03HX016 (ip), vehicle: Klucel (hydroxypropylcellulose) (HPC)
  T/C: 96 % of control
endpoint: median survival time, dose: 1.0 mg/kg/injection, schedule: Q03HX024 (ip), vehicle: Klucel (hydroxypropylcellulose) (HPC)
  T/C: 98 % of control
endpoint: median survival time, dose: 2.0 mg/kg/injection, schedule: Q01DX009 (ip), vehicle: Klucel (hydroxypropylcellulose) (HPC)
  T/C: 101 % of control
endpoint: median survival time, dose: 2.0 mg/kg/injection, schedule: Q01DX009 (sc), vehicle: Klucel (hydroxypropylcellulose) (HPC)
  T/C: 101 % of control
endpoint: median survival time, dose: 2.0 mg/kg/injection, schedule: Q03HX008 (ip), vehicle: Klucel (hydroxypropylcellulose) (HPC)
  T/C: 110 % of control
endpoint: median survival time, dose: 2.0 mg/kg/injection, schedule: Q03HX016 (ip), vehicle: Klucel (hydroxypropylcellulose) (HPC)
  T/C: 104 % of control
endpoint: median survival time, dose: 2.0 mg/kg/injection, schedule: Q03HX024 (ip), vehicle: Klucel (hydroxypropylcellulose) (HPC)
  T/C: 106 % of control
endpoint: median survival time, dose: 4.0 mg/kg/injection, schedule: Q01DX009 (ip), vehicle: Klucel (hydroxypropylcellulose) (HPC)
  T/C: 107 % of control
endpoint: median survival time, dose: 4.0 mg/kg/injection, schedule: Q01DX009 (oral), vehicle: Klucel (hydroxypropylcellulose) (HPC)
  T/C: 123 % of control
endpoint: median survival time, dose: 4.0 mg/kg/injection, schedule: Q01DX009 (sc), vehicle: Klucel (hydroxypropylcellulose) (HPC)
  T/C: 103 % of control
endpoint: median survival time, dose: 4.0 mg/kg/injection, schedule: Q03HX008 (ip), vehicle: Klucel (hydroxypropylcellulose) (HPC)
  T/C: 106 % of control
endpoint: median survival time, dose: 4.0 mg/kg/injection, schedule: Q03HX016 (ip), vehicle: Klucel (hydroxypropylcellulose) (HPC)
  T/C: 103 % of control
endpoint: median survival time, dose: 4.0 mg/kg/injection, schedule: Q03HX024 (ip), vehicle: Klucel (hydroxypropylcellulose) (HPC)
  T/C: 109 % of control
endpoint: median survival time, dose: 4.0 mg/kg/injection, schedule: Q04DX003 (ip), vehicle: Klucel (hydroxypropylcellulose) (HPC)
  T/C: 100 % of control
endpoint: median survival time, dose: 6.0 mg/kg/injection, schedule: Q01DX009 (ip), vehicle: Klucel (hydroxypropylcellulose) (HPC)
  T/C: 153 % of control
endpoint: median survival time, dose: 8.0 mg/kg/injection, schedule: Q01DX009 (ip), vehicle: Klucel (hydroxypropylcellulose) (HPC)
  T/C: 106 % of control
endpoint: median survival time, dose: 8.0 mg/kg/injection, schedule: Q01DX009 (oral), vehicle: Klucel (hydroxypropylcellulose) (HPC)
  T/C: 115 % of control
endpoint: median survival time, dose: 8.0 mg/kg/injection, schedule: Q01DX009 (sc), vehicle: Klucel (hydroxypropylcellulose) (HPC)
  T/C: 114 % of control
endpoint: median survival time, dose: 8.0 mg/kg/injection, schedule: Q03HX008 (ip), vehicle: Klucel (hydroxypropylcellulose) (HPC)
  T/C: 115 % of control
endpoint: median survival time, dose: 8.0 mg/kg/injection, schedule: Q03HX016 (ip), vehicle: Klucel (hydroxypropylcellulose) (HPC)
  T/C: 111 % of control
endpoint: median survival time, dose: 8.0 mg/kg/injection, schedule: Q03HX024 (ip), vehicle: Klucel (hydroxypropylcellulose) (HPC)
  T/C: 122 % of control
endpoint: median survival time, dose: 8.0 mg/kg/injection, schedule: Q04DX003 (ip), vehicle: Klucel (hydroxypropylcellulose) (HPC)
  T/C: 103 % of control
endpoint: median survival time, dose: 8.0 mg/kg/injection, schedule: Q08DX002 (ip), vehicle: Klucel (hydroxypropylcellulose) (HPC)
  T/C: 106 % of control
endpoint: median survival time, dose: 9.0 mg/kg/injection, schedule: Q01DX009 (ip), vehicle: Klucel (hydroxypropylcellulose) (HPC)
  T/C: 157 % of control and 164 % of control
endpoint: median survival time, dose: 13.0 mg/kg/injection, schedule: Q01DX009 (ip), vehicle: Klucel (hydroxypropylcellulose) (HPC)
  T/C: 164 % of control and 176 % of control
endpoint: median survival time, dose: 16.0 mg/kg/injection, schedule: Q01DX001 (ip), vehicle: Klucel (hydroxypropylcellulose) (HPC)
  T/C: 116 % of control
endpoint: median survival time, dose: 16.0 mg/kg/injection, schedule: Q01DX001 (sc), vehicle: Klucel (hydroxypropylcellulose) (HPC)
  T/C: 92 % of control
endpoint: median survival time, dose: 16.0 mg/kg/injection, schedule: Q01DX009 (ip), vehicle: Klucel (hydroxypropylcellulose) (HPC)
  T/C: 112 % of control
endpoint: median survival time, dose: 16.0 mg/kg/injection, schedule: Q01DX009 (oral), vehicle: Klucel (hydroxypropylcellulose) (HPC)
  T/C: 112 % of control
endpoint: median survival time, dose: 16.0 mg/kg/injection, schedule: Q01DX009 (sc), vehicle: Klucel (hydroxypropylcellulose) (HPC)
  T/C: 107 % of control
endpoint: median survival time, dose: 16.0 mg/kg/injection, schedule: Q03HX008 (ip), vehicle: Klucel (hydroxypropylcellulose) (HPC)
  T/C: 122 % of control
endpoint: median survival time, dose: 16.0 mg/kg/injection, schedule: Q04DX003 (ip), vehicle: Klucel (hydroxypropylcellulose) (HPC)
  T/C: 113 % of control
endpoint: median survival time, dose: 16.0 mg/kg/injection, schedule: Q08DX002 (ip), vehicle: Klucel (hydroxypropylcellulose) (HPC)
  T/C: 109 % of control
endpoint: median survival time, dose: 32.0 mg/kg/injection, schedule: Q01DX001 (ip), vehicle: Klucel (hydroxypropylcellulose) (HPC)
  T/C: 122 % of control
endpoint: median survival time, dose: 32.0 mg/kg/injection, schedule: Q01DX001 (oral), vehicle: Klucel (hydroxypropylcellulose) (HPC)
  T/C: 100 % of control
endpoint: median survival time, dose: 32.0 mg/kg/injection, schedule: Q01DX001 (sc), vehicle: Klucel (hydroxypropylcellulose) (HPC)
  T/C: 101 % of control
endpoint: median survival time, dose: 32.0 mg/kg/injection, schedule: Q01DX009 (oral), vehicle: Klucel (hydroxypropylcellulose) (HPC)
  T/C: 123 % of control
endpoint: median survival time, dose: 32.0 mg/kg/injection, schedule: Q01DX009 (sc), vehicle: Klucel (hydroxypropylcellulose) (HPC)
  T/C: 106 % of control
endpoint: median survival time, dose: 32.0 mg/kg/injection, schedule: Q04DX003 (ip), vehicle: Klucel (hydroxypropylcellulose) (HPC)
  T/C: 114 % of control
endpoint: median survival time, dose: 32.0 mg/kg/injection, schedule: Q08DX002 (ip), vehicle: Klucel (hydroxypropylcellulose) (HPC)
  T/C: 114 % of control
endpoint: median survival time, dose: 64.0 mg/kg/injection, schedule: Q01DX001 (ip), vehicle: Klucel (hydroxypropylcellulose) (HPC)
  T/C: 117 % of control
endpoint: median survival time, dose: 64.0 mg/kg/injection, schedule: Q01DX001 (oral), vehicle: Klucel (hydroxypropylcellulose) (HPC)
  T/C: 101 % of control
endpoint: median survival time, dose: 64.0 mg/kg/injection, schedule: Q01DX001 (sc), vehicle: Klucel (hydroxypropylcellulose) (HPC)
  T/C: 102 % of control
endpoint: median survival time, dose: 64.0 mg/kg/injection, schedule: Q01DX009 (oral), vehicle: Klucel (hydroxypropylcellulose) (HPC)
  T/C: 124 % of control
endpoint: median survival time, dose: 64.0 mg/kg/injection, schedule: Q08DX002 (ip), vehicle: Klucel (hydroxypropylcellulose) (HPC)
  T/C: 119 % of control
endpoint: median survival time, dose: 128.0 mg/kg/injection, schedule: Q01DX001 (oral), vehicle: Klucel (hydroxypropylcellulose) (HPC)
  T/C: 104 % of control
endpoint: median survival time, dose: 128.0 mg/kg/injection, schedule: Q01DX001 (sc), vehicle: Klucel (hydroxypropylcellulose) (HPC)
  T/C: 105 % of control
endpoint: median survival time, dose: 128.0 mg/kg/injection, schedule: Q08DX002 (ip), vehicle: Klucel (hydroxypropylcellulose) (HPC)
  T/C: 110 % of control
endpoint: median survival time, dose: 256.0 mg/kg/injection, schedule: Q01DX001 (ip), vehicle: Klucel (hydroxypropylcellulose) (HPC)
  T/C: 116 % of control
endpoint: median survival time, dose: 256.0 mg/kg/injection, schedule: Q01DX001 (oral), vehicle: Klucel (hydroxypropylcellulose) (HPC)
  T/C: 107 % of control
endpoint: median survival time, dose: 256.0 mg/kg/injection, schedule: Q01DX001 (sc), vehicle: Klucel (hydroxypropylcellulose) (HPC)
  T/C: 104 % of control
endpoint: median survival time, dose: 512.0 mg/kg/injection, schedule: Q01DX001 (oral), vehicle: Klucel (hydroxypropylcellulose) (HPC)
  T/C: 107 % of control

## CN(C)c1ccc(/C=C/c2nc3ccccc3o2)cc1
endpoint: mean survival time, dose: 100.0 mg/kg/injection, schedule: Q04DX003 (ip), vehicle: Klucel (hydroxypropylcellulose) (HPC)
  T/C: 96 % of control
endpoint: mean survival time, dose: 200.0 mg/kg/injection, schedule: Q04DX003 (ip), vehicle: Klucel (hydroxypropylcellulose) (HPC)
  T/C: 100 % of control
endpoint: mean survival time, dose: 400.0 mg/kg/injection, schedule: Q04DX003 (ip), vehicle: Klucel (hydroxypropylcellulose) (HPC)
  T/C: 102 % of control

## CC/C=C(\C)CC(C)O (configuration not stated)
endpoint: mean survival time, dose: 25.0 mg/kg/injection, schedule: Q04DX002 (ip), vehicle: saline with Tween-80
  T/C: 93 % of control
endpoint: mean survival time, dose: 50.0 mg/kg/injection, schedule: Q04DX002 (ip), vehicle: saline with Tween-80
  T/C: 89 % of control
endpoint: mean survival time, dose: 100.0 mg/kg/injection, schedule: Q04DX002 (ip), vehicle: saline with Tween-80
  T/C: 89 % of control

## Nc1nc(Cl)nc(Cl)n1
endpoint: mean survival time, dose: 12.5 mg/kg/injection, schedule: Q01DX001 (ip), vehicle: saline with Tween-80
  T/C: 102 % of control
endpoint: mean survival time, dose: 25.0 mg/kg/injection, schedule: Q01DX001 (ip), vehicle: saline with Tween-80
  T/C: 105 % of control
endpoint: mean survival time, dose: 50.0 mg/kg/injection, schedule: Q01DX001 (ip), vehicle: saline with Tween-80
  T/C: 100 % of control

## CCOC(=O)NCCCNC(=O)OCC
endpoint: mean survival time, dose: 100.0 mg/kg/injection, schedule: Q01DX009 (ip), vehicle: saline
  T/C: 104 % of control
endpoint: mean survival time, dose: 200.0 mg/kg/injection, schedule: Q01DX009 (ip), vehicle: saline
  T/C: 95 % of control
endpoint: mean survival time, dose: 400.0 mg/kg/injection, schedule: Q01DX009 (ip), vehicle: saline
  T/C: 93 % of control

## O=C1/C(=C/c2ccc([N+](=O)[O-])cc2)CCc2ccccc21
endpoint: mean survival time, dose: 12.5 mg/kg/injection, schedule: Q01DX009 (ip), vehicle: Klucel (hydroxypropylcellulose) (HPC)
  T/C: 97 % of control
endpoint: mean survival time, dose: 25.0 mg/kg/injection, schedule: Q01DX009 (ip), vehicle: Klucel (hydroxypropylcellulose) (HPC)
  T/C: 96 % of control
endpoint: mean survival time, dose: 50.0 mg/kg/injection, schedule: Q01DX009 (ip), vehicle: Klucel (hydroxypropylcellulose) (HPC)
  T/C: 94 % of control
endpoint: mean survival time, dose: 100.0 mg/kg/injection, schedule: Q01DX009 (ip), vehicle: Klucel (hydroxypropylcellulose) (HPC)
  T/C: 92 % of control
endpoint: mean survival time, dose: 200.0 mg/kg/injection, schedule: Q01DX009 (ip), vehicle: Klucel (hydroxypropylcellulose) (HPC)
  T/C: 91 % of control
